Data on 21 molecules can be found in patent US20240150293A1, “SPIROCYCLOHEXANE DERIVATIVES, PHARMACEUTICAL COMPOSITIONS CONTAINING THEM AND THEIR USES AS ANTI-APOPTOTIC INHIBITORS” (LES LABORATOIRES SERVIER, priority 2021, published 2024).

Assay [1] has as its target Cy5-labelled Mcl1 (amino acids 171-321) C286S protein (UniProtKB Q07820) (Homo sapiens (Human), UniProt Q07820, C286S). In words: Inhibition of Mcl-1 by the fluorescence quenching assay (Example A, Method B). The format is binding. The gist of the method:
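Cy5-labelled Mcl1 171-321 C286S (1 nM) quenched by TQ5WS-labelled PUMA peptide (10, 20 or 400 nM); displacement raises fluorescence (Ex 620/Em 680 nm). Buffer 10 mM HEPES, 150 mM NaCl, 0.05% Tween 20, pH 7.4, 5% DMSO; 2 h at room temperature, 11-point curves, IC50 converted to Ki (cKi/eKi).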

Assay [2] has as its system H929 multiple myeloma tumor line. In words: In vitro cytotoxicity, MTT assay (Example B, Method A). The format is cell-based. The following applies: H929 cells, 48 hours exposure, read-out: C50. As to the method: The cytotoxicity studies were carried out on the H929 multiple myeloma tumor line.
The cells are distributed onto microplates and exposed to the test compounds for 48 hours. The cell viability is then quantified by a colorimetric assay, the Microculture Tetrazolium Assay (Carmichael et al, Cancer Res. 1987, 47, 939-942).
The results are expressed in C50 which means concentration corresponding to […] of effect/inhibition.

The target in the next assay is Mcl-1 protein (UniProtKB Q07820) (Homo sapiens (Human), UniProt Q07820). In words: Inhibition of Mcl-1 by the fluorescence polarisation assay (Example A, Method A). The assay is classed as binding. The settings on record: fluorescence polarization assay. The essentials: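 Protein (5 nM) and fluorescein-tagged peptide tracer (1 nM) incubated with 11-point compound series for 2 h at room temperature in HEPES/NaCl/Tween 20 buffer, pH 7.4, 5% DMSO. Displacement read as decrease in polarisation; IC50 fitted by 4-parameter logistic, converted to Ki (cKi or eKi).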
Chain of Mcl-1 protein (Q07820 whole entry): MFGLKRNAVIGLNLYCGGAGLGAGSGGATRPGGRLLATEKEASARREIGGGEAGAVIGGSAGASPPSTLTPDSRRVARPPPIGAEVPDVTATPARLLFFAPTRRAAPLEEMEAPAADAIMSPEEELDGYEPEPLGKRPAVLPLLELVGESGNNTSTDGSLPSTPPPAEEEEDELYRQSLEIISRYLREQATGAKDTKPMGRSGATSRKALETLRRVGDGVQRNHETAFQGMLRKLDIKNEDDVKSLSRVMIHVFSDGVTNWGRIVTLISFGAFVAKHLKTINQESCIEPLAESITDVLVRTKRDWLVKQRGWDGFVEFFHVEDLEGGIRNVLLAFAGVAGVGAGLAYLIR

Like-named read-outs stand apart in the source and are kept apart here.

Chain of Cy5-labelled Mcl1 (amino acids 171-321) C286S protein (Q07820 171-321 C286S): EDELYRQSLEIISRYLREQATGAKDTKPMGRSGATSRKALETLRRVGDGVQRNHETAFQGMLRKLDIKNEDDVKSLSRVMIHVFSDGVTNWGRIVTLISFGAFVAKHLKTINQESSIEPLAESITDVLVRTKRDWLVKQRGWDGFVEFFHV

By Ki is commonly meant the equilibrium dissociation constant of an inhibitor or competing ligand from its target. For `C[C@H]1Cc2c(OC[C@H](C)C[C@H]3Cc4ccccc4[C@]34CC[C@@](Nc3cccc(Cl)c3)(C(=O)O)CC4)ccnc2[C@H](O)C1` (racemic) [Example 670, (1r,2′S,4S)-4-(3-chloroanilino)-2′-[(2R)-3-{[(6RS,8SR)-8-hydroxy-6-methyl-5,6,7,8-tetrahydroquinolin-4-yl]oxy}-2-methylpropyl]-2′,3′-dihydrospiro[cyclohexane-1,1′-indene]-4-carboxylic acid], the Ki in assay [1] is 0.0416 µM. Further, the IC50 in assay [2] (Homo sapiens, NCI-H929, 48 h) came out at 3.6 µM.
Regarding `O=C(O)[C@]1(Nc2cccc(Cl)c2)CC[C@@]2(CC1)c1ccccc1CC2CC(COc1ccnc2c1CCC2)COc1ccnc2c1CCC2` (single isomer, unassigned) [Example 497, (1r,4r)-4-(3-chloroanilino)-2′-(3-[(6,7-dihydro-5H-cyclopenta[b]pyridin-4-yl)oxy]-2-{[(6,7-dihydro-5H-cyclopenta[b]pyridin-4-yl)oxy]methyl}propyl)-2′,3′-dihydrospiro[cyclohexane-1,1′-indene]-4-carboxylic acid], the Ki in assay [1] was 0.00134 µM. Also, the IC50 in assay [2] turned out to be 1.22 µM.
In the same order, the values of `O=C(O)[C@]1(Nc2cccc(Cl)c2)CC[C@@]2(CC1)c1ccccc1CC2CC(COc1ccnc2c1CCC2)COc1ccnc2c1CCC2` (single isomer, unassigned) [Example 498, (1r,4r)-4-(3-chloroanilino)-2′-(3-[(6,7-dihydro-5H-cyclopenta[b]pyridin-4-yl)oxy]-2-{[(6,7-dihydro-5H-cyclopenta[b]pyridin-4-yl)oxy]methyl}propyl)-2′,3′-dihydrospiro[cyclohexane-1,1′-indene]-4-carboxylic acid] are 0.000769 µM and 0.436 µM.
For `O=C(O)[C@]1(Nc2cccc(Cl)c2)CC[C@]2(CC1)C(CC(F)COc1ccnc3c1CCCC3)=Cc1ccccc12` (single isomer, unassigned) [Example 505, (1r,4r)-4-(3-chloroanilino)-2′-{2-fluoro-3-[(5,6,7,8-tetrahydroquinolin-4-yl)oxy]propyl}spiro[cyclohexane-1,1′-indene]-4-carboxylic acid], the Ki in assay [1] was 0.0234 µM. Besides, the IC50 in assay [2] (Homo sapiens, NCI-H929, 48 h) was 2.38 µM.
In the case of `O=C(O)[C@]1(Nc2cccc(Cl)c2)CC[C@]2(CC1)C(CC(F)COc1ccnc3c1CCCC3)=Cc1ccccc12` (single isomer, unassigned) [Example 506, (1r,4r)-4-(3-chloroanilino)-2′-{2-fluoro-3-[(5,6,7,8-tetrahydroquinolin-4-yl)oxy]propyl}spiro[cyclohexane-1,1′-indene]-4-carboxylic acid], the Ki in assay [1] was determined as 0.0492 µM. The IC50 in assay [2] is 2.79 µM.
In the same order, the values of `C[C@@H]1CCCc2nccc(OCC(F)CC3Cc4ccccc4[C@]34CC[C@@](Nc3cccc(Cl)c3)(C(=O)O)CC4)c21` (single isomer, unassigned) [Example 507] are 0.00876 µM and 2.24 µM.
In the same order, the values of `C[C@@H]1CCCc2nccc(OCC(F)CC3Cc4ccccc4[C@]34CC[C@@](Nc3cccc(Cl)c3)(C(=O)O)CC4)c21` (single isomer, unassigned) [Example 508] are 0.0203 µM and 3.64 µM.
In the same order, the values of `C[C@@H]1CCCc2nccc(OCC(F)CC3Cc4ccccc4[C@]34CC[C@@](Nc3cccc(Cl)c3)(C(=O)O)CC4)c21` (single isomer, unassigned) [Example 509] are 0.0053 µM and 0.999 µM.
As for `C[C@@H]1CCCc2nccc(OCC(F)CC3Cc4ccccc4[C@]34CC[C@@](Nc3cccc(Cl)c3)(C(=O)O)CC4)c21` (single isomer, unassigned) [Example 510], the Ki in assay [1] was found to be 0.00151 µM. Moreover, the IC50 in assay [2] was 0.252 µM.
The matching figures for `C[C@@H]1CCCc2nccc(OCC(CF)CC3=Cc4ccccc4[C@]34CC[C@@](Nc3cccc(Cl)c3)(C(=O)O)CC4)c21` (single isomer, unassigned) [Example 514]: 0.00184 µM and 0.32 µM.
On to `C[C@@H](COc1ncnc2c1C(C)(C)CC2)CC1Cc2ccccc2[C@]12CC[C@@](Nc1cccc(Cl)c1)(C(=O)O)CC2` (stereo partly drawn) [Example 595, (1r,4R)-4-(3-chloroanilino)-2′-{(2R)-3-[(5,5-dimethyl-6,7-dihydro-5H-cyclopenta[d]pyrimidin-4-yl)oxy]-2-methylpropyl}-2′,3′-dihydrospiro[cyclohexane-1,1′-indene]-4-carboxylic acid], for which the IC50 in assay [2] (Homo sapiens, NCI-H929, 48 h) was 1.51 µM. Besides, the Ki at Mcl-1 protein is 0.0299 µM.
The matching figures for `C[C@@H](COc1ccnc2c1CCC2)CC1Cc2ccccc2[C@]12CC[C@@](Nc1ccccc1)(C(=O)O)CC2` (stereo partly drawn) [Example 596, (1r,4R)-4-anilino-2′-{(2R)-3-[(6,7-dihydro-5H-cyclopenta[b]pyridin-4-yl)oxy]-2-methylpropyl}-2′,3′-dihydrospiro[cyclohexane-1,1′-indene]-4-carboxylic acid]: 1.82 µM and 0.0312 µM.
Turning to `C[C@@H](COc1ccnc2sccc12)C[C@H]1Cc2ccccc2[C@]12CC[C@@](Nc1cccc(Cl)c1)(C(=O)O)CC2` [Example 604, (1r,2′S,4S)-4-(3-chloroanilino)-2′-{(2R)-2-methyl-3-[(thieno[2,3-b]pyridin-4-yl)oxy]propyl}-2′,3′-dihydrospiro[cyclohexane-1,1′-indene]-4-carboxylic acid], the IC50 in assay [2] (Homo sapiens, NCI-H929, 48 h) came to 0.694 µM. Moreover, at Mcl-1 protein, the Ki came out at 0.03 µM.
The matching figures for `Cc1csc2nccc(OC[C@H](C)C[C@H]3Cc4ccccc4[C@]34CC[C@@](Nc3cccc(Cl)c3)(C(=O)O)CC4)c12` [Example 605, (1r,2′S,4S)-4-(3-chloroanilino)-2′-{(2R)-2-methyl-3-[(3-methylthieno[2,3-b]pyridin-4-yl)oxy]propyl}-2′,3′-dihydrospiro[cyclohexane-1,1′-indene]-4-carboxylic acid]: 0.906 µM and 0.0242 µM.
The matching figures for `C[C@@H](COc1ccnc2occc12)C[C@H]1Cc2ccccc2[C@]12CC[C@@](Nc1cccc(Cl)c1)(C(=O)O)CC2` [Example 606, (1r,2′S,4S)-4-(3-chloroanilino)-2′-{(2R)-3-[(furo[2,3-b]pyridin-4-yl)oxy]-2-methylpropyl}-2′,3′-dihydrospiro[cyclohexane-1,1′-indene]-4-carboxylic acid]: 2.14 µM and 0.0773 µM.
In the same order, the values of `C[C@@H](COc1ccnc2c1CCCCC2)C[C@H]1Cc2ccccc2[C@]12CC[C@@](Nc1cccc(Cl)c1)(C(=O)O)CC2` [Example 633, (1r,2′S,4S)-4-(3-chloroanilino)-2′-{(2R)-2-methyl-3-[(6,7,8,9-tetrahydro-5H-cyclohepta[b]pyridin-4-yl)oxy]propyl}-2′,3′-dihydrospiro[cyclohexane-1,1′-indene]-4-carboxylic acid] are 0.371 µM and 0.0053 µM.
Take `C[C@@H](COc1ccnc2c1CCCCC2O)C[C@H]1Cc2ccccc2[C@]12CC[C@@](Nc1cccc(Cl)c1)(C(=O)O)CC2` (stereo partly drawn) [Example 634, (1r,2′S,4S)-4-(3-chloroanilino)-2′-{(2R)-3-[(9-hydroxy-6,7,8,9-tetrahydro-5H-cyclohepta[b]pyridin-4-yl)oxy]-2-methylpropyl}-2′,3′-dihydrospiro[cyclohexane-1,1′-indene]-4-carboxylic acid]: the IC50 in assay [2] (Homo sapiens, NCI-H929, 48 h) came to 4.23 µM. Further, the inhibition constant Ki on Mcl-1 protein was 0.0868 µM.
In the same order, the values of `C[C@@H](COc1ccnc2c1CCCO2)C[C@H]1Cc2ccccc2[C@]12CC[C@@](Nc1cccc(Cl)c1)(C(=O)O)CC2` [Example 635, (1r,2′S,4S)-4-(3-chloroanilino)-2′-{(2R)-3-[(3,4-dihydro-2H-pyrano[2,3-b]pyridin-5-yl)oxy]-2-methylpropyl}-2′,3′-dihydrospiro[cyclohexane-1,1′-indene]-4-carboxylic acid] are 4.59 µM and 0.0448 µM.
In the same order, the values of `CC1CCc2nccc(OC[C@H](C)C[C@H]3Cc4ccccc4[C@]34CC[C@@](Nc3cccc(Cl)c3)(C(=O)O)CC4)c2C1` (stereo partly drawn) [Example 651, (1r,2′S,4S)-4-(3-chloroanilino)-2′-{(2R)-2-methyl-3-[(6-methyl-5,6,7,8-tetrahydroquinolin-4-yl)oxy]propyl}-2′,3′-dihydrospiro[cyclohexane-1,1′-indene]-4-carboxylic acid] are 1.26 µM and 0.0179 µM.
In the same order, the values of `C[C@@H](COc1ccnc2c1CC(C)(C)CC2)C[C@H]1Cc2ccccc2[C@]12CC[C@@](Nc1cccc(Cl)c1)(C(=O)O)CC2` [Example 652, (1r,2′S,4S)-4-(3-chloroanilino)-2′-{(2R)-3-[(6,6-dimethyl-5,6,7,8-tetrahydroquinolin-4-yl)oxy]-2-methylpropyl}-2′,3′-dihydrospiro[cyclohexane-1,1′-indene]-4-carboxylic acid] are 4.71 µM and 0.0203 µM.
For the molecule `C[C@@H](COc1ccnc2c1CCC[C@@H]2O)C[C@H]1Cc2ccccc2[C@]12CC[C@@](Nc1cccc(Cl)c1)(C(=O)O)CC2` [Example 669, (1r,2′S,4S)-4-(3-chloroanilino)-2′-[(2R)-3-{[(8S)-8-hydroxy-5,6,7,8-tetrahydroquinolin-4-yl]oxy}-2-methylpropyl]-2′,3′-dihydrospiro[cyclohexane-1,1′-indene]-4-carboxylic acid], the IC50 in assay [2] (Homo sapiens, NCI-H929, 48 h) is 1.52 µM. In addition, the Ki at Mcl-1 protein is 0.0323 µM.
